In ChEMBL document CHEMBL1938230, “6-Position optimization of tricyclic 4-quinolone-based inhibitors of glycogen synthase kinase-3β: discovery of nitrile derivatives with picomolar potency” (Bioorg Med Chem Lett, 2012):

How the values were obtained:
[1] = target: DNA-dependent protein kinase catalytic subunit (Homo sapiens) (UniProt P78527); assay: Inhibition of human DNAPK in HL-60 cells lysate assessed as reduction of labeling of acyl-phosphate ATP probe at 100 nM; assay type: cell-free
[2] = target: T1, Inhibitor of nuclear factor kappa-B kinase subunit beta (Homo sapiens) (UniProt O14920); assay: Inhibition of human IKK-beta in HL-60 cells lysate assessed as reduction of labelling of acyl-phosphate ATP probe at 100 nM; assay type: cell-free
T1 sequence (whole entry): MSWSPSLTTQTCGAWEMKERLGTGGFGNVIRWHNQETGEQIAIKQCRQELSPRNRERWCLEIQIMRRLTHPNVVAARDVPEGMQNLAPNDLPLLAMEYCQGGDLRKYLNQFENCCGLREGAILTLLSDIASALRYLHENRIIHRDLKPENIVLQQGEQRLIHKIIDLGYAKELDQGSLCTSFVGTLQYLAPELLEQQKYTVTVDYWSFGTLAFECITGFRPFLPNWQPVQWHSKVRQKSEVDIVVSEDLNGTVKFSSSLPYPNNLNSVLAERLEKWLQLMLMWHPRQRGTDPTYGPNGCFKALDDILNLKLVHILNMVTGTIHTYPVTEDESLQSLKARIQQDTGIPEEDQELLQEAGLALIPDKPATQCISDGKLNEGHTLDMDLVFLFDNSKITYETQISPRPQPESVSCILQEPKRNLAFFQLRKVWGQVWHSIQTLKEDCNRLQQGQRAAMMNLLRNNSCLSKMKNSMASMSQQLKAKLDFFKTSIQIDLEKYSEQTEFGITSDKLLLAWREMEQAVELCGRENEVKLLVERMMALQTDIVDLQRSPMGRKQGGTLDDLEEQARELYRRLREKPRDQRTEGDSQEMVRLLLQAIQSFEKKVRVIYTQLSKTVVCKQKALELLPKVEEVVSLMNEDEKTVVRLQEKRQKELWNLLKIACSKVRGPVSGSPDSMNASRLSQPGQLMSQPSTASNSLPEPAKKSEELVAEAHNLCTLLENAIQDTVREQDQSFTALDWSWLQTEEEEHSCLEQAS

[3] = target: T2, Serine/threonine-protein kinase Nek1 (Homo sapiens) (UniProt Q96PY6); assay: Inhibition of human NEK1 in HL-60 cells lysate assessed as reduction of labeling of acyl-phosphate ATP probe at 100 nM; assay type: cell-free
T2 sequence (whole entry): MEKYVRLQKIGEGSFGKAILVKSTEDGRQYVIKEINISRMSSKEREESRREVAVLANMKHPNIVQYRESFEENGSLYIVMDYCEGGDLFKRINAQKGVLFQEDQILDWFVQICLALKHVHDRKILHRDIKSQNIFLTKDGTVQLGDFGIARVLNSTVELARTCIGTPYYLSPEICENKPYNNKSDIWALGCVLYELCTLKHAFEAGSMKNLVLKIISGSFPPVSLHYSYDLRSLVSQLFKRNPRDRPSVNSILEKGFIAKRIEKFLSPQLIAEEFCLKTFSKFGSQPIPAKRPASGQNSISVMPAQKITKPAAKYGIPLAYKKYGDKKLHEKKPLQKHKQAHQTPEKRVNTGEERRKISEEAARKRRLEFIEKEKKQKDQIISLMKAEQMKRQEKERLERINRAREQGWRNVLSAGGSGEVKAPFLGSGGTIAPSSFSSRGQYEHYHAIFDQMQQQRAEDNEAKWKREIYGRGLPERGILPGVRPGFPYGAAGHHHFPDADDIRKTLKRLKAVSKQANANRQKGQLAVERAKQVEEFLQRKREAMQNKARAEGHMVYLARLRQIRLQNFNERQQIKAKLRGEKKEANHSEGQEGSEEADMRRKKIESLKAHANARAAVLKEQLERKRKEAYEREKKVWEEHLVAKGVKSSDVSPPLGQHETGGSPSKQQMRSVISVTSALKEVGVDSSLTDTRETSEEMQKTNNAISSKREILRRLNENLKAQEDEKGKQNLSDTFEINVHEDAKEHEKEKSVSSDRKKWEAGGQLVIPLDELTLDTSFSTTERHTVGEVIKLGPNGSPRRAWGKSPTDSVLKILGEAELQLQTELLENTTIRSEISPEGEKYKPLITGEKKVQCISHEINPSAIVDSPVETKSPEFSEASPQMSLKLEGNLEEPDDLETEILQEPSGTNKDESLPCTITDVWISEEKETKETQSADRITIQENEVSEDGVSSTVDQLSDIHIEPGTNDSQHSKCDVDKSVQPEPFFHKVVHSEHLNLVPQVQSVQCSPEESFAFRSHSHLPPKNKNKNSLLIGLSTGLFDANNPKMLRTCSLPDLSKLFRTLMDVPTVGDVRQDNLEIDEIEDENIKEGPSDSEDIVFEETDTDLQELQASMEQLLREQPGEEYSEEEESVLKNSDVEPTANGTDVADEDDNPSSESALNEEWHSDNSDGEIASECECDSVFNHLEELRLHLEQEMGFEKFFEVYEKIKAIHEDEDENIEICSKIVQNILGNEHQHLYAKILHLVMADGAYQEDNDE

[4] = target: Misshapen-like kinase 1 (Homo sapiens) (UniProt Q8N4C8); assay: Inhibition of human ZC3/MINK in HL-60 cells lysate assessed as reduction of labeling of acyl-phosphate ATP probe at 100 nM; assay type: cell-free
Chain of Misshapen-like kinase 1 (Homo sapiens) (Q8N4C8 whole entry, looked up): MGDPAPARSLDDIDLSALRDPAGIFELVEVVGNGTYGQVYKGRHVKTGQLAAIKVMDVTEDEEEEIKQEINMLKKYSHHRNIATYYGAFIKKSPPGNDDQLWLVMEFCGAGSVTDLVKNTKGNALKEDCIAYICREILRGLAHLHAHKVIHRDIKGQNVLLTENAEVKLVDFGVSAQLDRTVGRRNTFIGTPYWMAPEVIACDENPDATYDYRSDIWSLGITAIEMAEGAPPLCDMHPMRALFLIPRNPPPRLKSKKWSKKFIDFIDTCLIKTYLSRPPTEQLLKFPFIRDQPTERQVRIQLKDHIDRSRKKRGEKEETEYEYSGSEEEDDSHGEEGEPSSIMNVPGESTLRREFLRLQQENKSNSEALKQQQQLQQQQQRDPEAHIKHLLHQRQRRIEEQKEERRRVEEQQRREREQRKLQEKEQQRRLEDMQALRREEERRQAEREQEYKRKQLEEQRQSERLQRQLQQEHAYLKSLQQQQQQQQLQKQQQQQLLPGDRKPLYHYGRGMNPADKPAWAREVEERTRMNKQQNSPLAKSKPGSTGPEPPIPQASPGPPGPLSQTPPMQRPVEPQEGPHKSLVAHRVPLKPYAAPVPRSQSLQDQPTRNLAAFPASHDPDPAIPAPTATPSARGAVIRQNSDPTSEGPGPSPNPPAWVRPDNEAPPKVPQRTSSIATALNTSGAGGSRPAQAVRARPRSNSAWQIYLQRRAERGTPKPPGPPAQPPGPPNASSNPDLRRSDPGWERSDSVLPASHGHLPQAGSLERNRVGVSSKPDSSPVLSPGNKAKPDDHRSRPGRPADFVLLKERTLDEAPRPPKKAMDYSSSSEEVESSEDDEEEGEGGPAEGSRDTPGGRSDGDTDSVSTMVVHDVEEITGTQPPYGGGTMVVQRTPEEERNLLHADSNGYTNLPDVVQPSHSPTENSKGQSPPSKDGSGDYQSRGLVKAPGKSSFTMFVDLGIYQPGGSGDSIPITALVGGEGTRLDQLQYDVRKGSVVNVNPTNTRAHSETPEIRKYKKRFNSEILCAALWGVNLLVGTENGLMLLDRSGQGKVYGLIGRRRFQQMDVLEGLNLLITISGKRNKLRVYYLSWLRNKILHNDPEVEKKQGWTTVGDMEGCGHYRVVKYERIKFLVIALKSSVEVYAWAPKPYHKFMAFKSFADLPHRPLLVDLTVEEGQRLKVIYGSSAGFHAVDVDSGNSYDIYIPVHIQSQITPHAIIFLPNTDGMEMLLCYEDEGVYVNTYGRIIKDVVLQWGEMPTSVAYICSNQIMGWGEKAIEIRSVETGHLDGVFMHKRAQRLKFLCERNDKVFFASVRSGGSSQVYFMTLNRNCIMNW

[5] = target: Tyrosine-protein kinase BTK (Homo sapiens) (UniProt Q06187); assay: Inhibition of human BTK in HL-60 cells lysate assessed as reduction of labeling of acyl-phosphate ATP probe at 100 nM; assay type: cell-free
Chain of Tyrosine-protein kinase BTK (Homo sapiens) (Q06187 whole entry): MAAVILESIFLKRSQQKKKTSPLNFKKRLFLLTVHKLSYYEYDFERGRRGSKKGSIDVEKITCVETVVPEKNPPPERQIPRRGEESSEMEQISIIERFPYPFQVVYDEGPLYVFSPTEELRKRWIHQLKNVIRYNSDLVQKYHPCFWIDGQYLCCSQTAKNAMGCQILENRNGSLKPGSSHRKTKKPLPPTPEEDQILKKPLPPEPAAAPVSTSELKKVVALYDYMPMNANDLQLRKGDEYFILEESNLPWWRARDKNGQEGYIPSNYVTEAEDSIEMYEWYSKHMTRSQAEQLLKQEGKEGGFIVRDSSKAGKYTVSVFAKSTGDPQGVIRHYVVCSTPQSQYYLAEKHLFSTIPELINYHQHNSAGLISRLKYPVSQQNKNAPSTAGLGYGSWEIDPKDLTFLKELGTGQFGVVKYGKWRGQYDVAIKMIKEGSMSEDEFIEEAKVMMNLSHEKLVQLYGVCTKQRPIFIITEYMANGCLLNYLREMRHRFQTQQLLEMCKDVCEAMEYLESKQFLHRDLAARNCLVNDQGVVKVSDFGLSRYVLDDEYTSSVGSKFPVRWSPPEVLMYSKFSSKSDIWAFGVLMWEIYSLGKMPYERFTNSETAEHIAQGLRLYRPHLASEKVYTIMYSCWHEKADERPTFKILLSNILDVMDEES

[6] = target: T3, Serine/threonine-protein kinase A-Raf (Homo sapiens) (UniProt P10398); assay: Inhibition of human ARAF in HL-60 cells lysate assessed as reduction of labeling of acyl-phosphate ATP probe at 100 nM; assay type: cell-free
T3 sequence (whole entry): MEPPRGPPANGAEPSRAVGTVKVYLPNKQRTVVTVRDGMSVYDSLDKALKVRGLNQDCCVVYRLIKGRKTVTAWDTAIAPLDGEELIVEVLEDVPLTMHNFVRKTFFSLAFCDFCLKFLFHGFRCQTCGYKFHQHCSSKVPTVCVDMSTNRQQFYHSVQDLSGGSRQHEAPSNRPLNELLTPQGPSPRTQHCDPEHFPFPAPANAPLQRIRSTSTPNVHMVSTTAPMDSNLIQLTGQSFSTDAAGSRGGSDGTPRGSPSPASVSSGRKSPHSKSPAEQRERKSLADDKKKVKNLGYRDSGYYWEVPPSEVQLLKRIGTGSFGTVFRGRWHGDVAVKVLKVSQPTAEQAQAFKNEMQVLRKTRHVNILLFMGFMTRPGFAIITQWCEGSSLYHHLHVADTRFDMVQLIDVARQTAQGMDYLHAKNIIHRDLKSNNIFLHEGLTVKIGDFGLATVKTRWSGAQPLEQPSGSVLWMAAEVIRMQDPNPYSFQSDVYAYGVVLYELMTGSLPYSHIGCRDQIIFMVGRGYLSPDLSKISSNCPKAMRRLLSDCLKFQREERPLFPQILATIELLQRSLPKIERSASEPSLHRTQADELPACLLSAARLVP

[7] = system: HL-60; assay: Inhibition of human CLK1/CLK4 in HL-60 cells lysate assessed as reduction of labeling of acyl-phosphate ATP probe at 100 nM

C[C@H]1COc2c(NCCCn3cccn3)c(F)c(N)c3c(=O)c(C#N)cn1c23
< 35%: inhibition [1] | inhibition [2] | inhibition [3] | inhibition [4] | inhibition [5] | inhibition [6] | inhibition at 0.1 µM [7]

C[C@H]1COc2c(NCCCc3ccccn3)c(F)c(N)c3c(=O)c(C#N)cn1c23
< 35%: inhibition [1] | inhibition [2] | inhibition [3] | inhibition [4] | inhibition [5] | inhibition [6] | inhibition at 0.1 µM [7]

C[C@H]1COc2c(NCCCn3cccn3)c(F)c(N)c3c(=O)c(C(=O)O)cn1c23
< 35%: inhibition [1] | inhibition [2] | inhibition [3] | inhibition [4] | inhibition [5] | inhibition [6] | inhibition at 0.1 µM [7]

C[C@H]1COc2c(NCCCc3ccccn3)c(F)c(N)c3c(=O)c(C(=O)O)cn1c23
< 35%: inhibition [1] | inhibition [2] | inhibition [3] | inhibition [4] | inhibition [5] | inhibition [6] | inhibition at 0.1 µM [7]
